From US20190282703A1, “ECTONUCLEOTIDE PYROPHOSPHATASE-PHOSPHODIESTERASE (ENPP) CONJUGATES AND USES THEREOF” (Mavupharma, Inc., priority 2018, published 2019)

How the values were obtained:
[1] = target: T1, human ENPP-1 enzyme (Homo sapiens, UniProt P22413); experiment: ENPP1 Enzyme Assay with cGAMP Substrate (AMP-Glo); assay type: biochemical; conditions: for inhibition at 1 µM: 1 uM compound; for inhibition at 1 µM / inhibition at 10 µM: 20 μM 2′3′-cGAMP substrate; for inhibition at 10 µM: 10 uM compound
T1 construct: purchased R&D Systems
T1 sequence (P22413 1-925): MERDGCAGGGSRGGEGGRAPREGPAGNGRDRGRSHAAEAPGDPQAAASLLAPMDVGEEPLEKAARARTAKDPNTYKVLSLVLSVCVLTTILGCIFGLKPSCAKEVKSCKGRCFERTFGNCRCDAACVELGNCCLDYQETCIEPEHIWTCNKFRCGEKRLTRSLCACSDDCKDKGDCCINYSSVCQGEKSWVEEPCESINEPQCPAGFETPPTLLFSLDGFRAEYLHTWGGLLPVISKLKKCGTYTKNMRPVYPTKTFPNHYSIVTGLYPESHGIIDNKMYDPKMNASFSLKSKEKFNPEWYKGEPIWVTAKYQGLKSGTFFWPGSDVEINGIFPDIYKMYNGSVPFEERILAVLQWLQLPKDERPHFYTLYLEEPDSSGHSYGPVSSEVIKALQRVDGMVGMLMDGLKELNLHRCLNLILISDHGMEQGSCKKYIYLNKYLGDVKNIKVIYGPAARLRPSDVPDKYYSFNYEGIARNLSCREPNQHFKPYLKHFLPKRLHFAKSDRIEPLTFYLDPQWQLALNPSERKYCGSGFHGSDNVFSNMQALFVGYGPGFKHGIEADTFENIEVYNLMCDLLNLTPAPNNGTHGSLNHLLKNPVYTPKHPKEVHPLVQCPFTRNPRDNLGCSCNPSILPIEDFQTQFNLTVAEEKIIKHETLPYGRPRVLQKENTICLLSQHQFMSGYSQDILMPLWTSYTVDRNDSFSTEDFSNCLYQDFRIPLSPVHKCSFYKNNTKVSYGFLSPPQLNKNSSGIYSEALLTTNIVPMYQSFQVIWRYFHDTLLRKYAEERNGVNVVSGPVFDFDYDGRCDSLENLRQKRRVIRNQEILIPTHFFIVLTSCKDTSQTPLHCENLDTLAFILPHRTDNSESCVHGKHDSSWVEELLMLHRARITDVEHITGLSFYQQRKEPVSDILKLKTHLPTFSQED
Source text: ENPP1 Enzyme Assay with cGAMP Substrate:
Ectonucleotide pyrophosphatase/phosphodiesterase 1 (ENPP-1) is a transmembrane glycoprotein that hydrolyzes nucleotides and nucleotide derivatives with the formation of nucleoside-5′-monophosphates. ENPP-1 hydrolyzes 2′3′-cGAMP (cGAMP), breaking it down into 5′-AMP and 5′-GMP. The 5′-AMP formed from the reaction is detected using the AMP-Glo® Kit (Promega). The assay kit contains two reagents. The first reagent terminates the enzymatic reaction, removes ATP (using adenylyl cyclase), and converts 5′-AMP produced into ADP (using polyphosphate: AMP phosphotransferase). The second reagent converts ADP to ATP (using adenylate kinase) and generates light from ATP using the luciferin/luciferase reaction. The amount of light measured is proportional to the amount of 5′-AMP produced by ENPP1.
Different concentrations of exemplary ENPP1 inhibitors (synthetic molecules #1-7; see Table 1) were pre-incubated with 5 ng/well of human ENPP-1 enzyme (R&D Systems) for 15 minutes at 37° C. The reaction was initiated by adding 20 μM 2′3′-cGAMP and incubating for 30 minutes at 37° C. The final assay reaction mixture contained a buffer of 50 mM Tris pH 8.0, 250 mM NaCl, 0.5 mM CaCl2, 1 μM ZnCl2 and 1% DMSO. At the end of the incubation, the reaction was stopped by adding 12 μl of AMP-Glo reagent-1 and mixing the reaction uniformly for 5 minutes, followed by incubation at room temperature for one hour. Then 25 μl of AMP Glo reagent-2 was added to the reaction, mixed uniformly with a pipette, and incubated at room temperature for one hour to convert the ADP formed from reagent-1 to ATP and light. The generated light was measured in a Perkin Elmer Victor® instrument. Maximal activity control samples (containing enzyme, substrate, and buffer in the absence of ENPP1 inhibitors: MAX) and background control samples (containing enzyme, substrate, and buffer plus a fully inhibitory concentration (3 μM) of the reference ENPP1 Inhibitor, MV-0000002: MIN) were simultaneously evaluated in order to calculate the percent inhibition at each compound concentration as follows:
(§1) % inhibition=(([MAX−MIN]−[COMPOUND−MIN])/[MAX−MIN])*100
The IC50 values for percent inhibition versus compound concentration were determined by fitting the inhibition curves using a four-parameter variable slope model in GraphPad Prism® software. Ki values are derived from the IC50 values using the Cheng-Prusoff equation: […]

[2] = target: T1, human ENPP-1 enzyme; experiment: ENPP1 Enzyme Assay with TMP-pNP Substrate (absorbance at 405 nm); assay type: biochemical; conditions: for inhibition at 10 µM: read-out: TMP-pNP: % inhibition at 10 uM, 10 uM compound, 200 μM TMP-pNP substrate
Experimental: ENPP1 Enzyme Assay with TMP-pNP Substrate:
ENPP-1 hydrolyzes thymidine 5′monophosphate p-nitrophenyl ester (TMP-pNP) to nucleotide-5′-monophosphate and p-nitrophenol, which is a chromogenic product. The amount of p-nitrophenol product formed is measured using its absorbance at 405 nm, which is directly proportional to enzyme activity. Different concentrations of inhibitors (synthetic molecules #1-7; see Table 1) were pre-incubated with 15 ng/well of human ENPP-1 enzyme (R&D Systems) for 15 minutes at 37° C. The reaction was initiated by adding 200 μM TMP-pNP and incubating for 10 minutes at 37° C. The final assay reaction mixture contained a buffer of 50 mM Tris pH 8.0, 250 mM NaCl, 0.5 mM CaCl2, 1 μM ZnCl2 and 1% DMSO. The amount of product formed was measured directly in a Tecan® spectrophotometer. Maximal activity control samples (containing enzyme, substrate, and buffer in the absence of ENPP1 inhibitors: MAX) and background control samples (containing enzyme, substrate, and buffer plus a fully inhibitory concentration (3 μM) of the reference ENPP1 Inhibitor, MV-0000002: MIN) are simultaneously evaluated in order to calculate the percent inhibition at each compound concentration as follows:
as §1
The IC50 values for percent inhibition versus compound concentration were determined by fitting the inhibition curves (percent inhibition versus inhibitor concentration) using a four-parameter variable slope model in GraphPad Prism® software. Ki values are derived from the IC50 values using the Cheng-Prusoff equation:
Ki=IC50/(1+[TMP-pNP]/Km),

inhibition at 1 µM [1]	inhibition at 10 µM [2]	Ki [1]	inhibition at 10 µM [1]	Ki [2]	Structure (SMILES)
≥ 75%	≥ 75%				COc1cc2ncc(C(N)=O)c(N3CCC(CCNS(N)(=O)=O)CC3)c2cc1OC [Ex 2, 6,7-dimethoxy-4-(4-(2-(sulfamoylamino)ethyl)piperidin-1-yl)quinoline-3-carboxamide]
		> 1 µM	≥ 75%	> 1 µM	Cn1ncc2c(N3CCC(CCNS(N)(=O)=O)CC3)ncnc21 [Ex 3, N-(2-(1-(1-methyl-1H-pyrazolo[3,4-d]pyrimidin-4-yl)piperidin-4-yl)ethyl)sulfonic amide]
	≥ 75%	≤ 0.1 µM	≥ 75%	0.1 to 1 µM	COc1cc2ncnc(N3CCC4(CC3)CN(S(N)(=O)=O)C4)c2cc1OC [Ex 5, 7-(6,7-dimethoxyquinazolin-4-yl)-2,7-diazaspiro[3.5]nonane-2-sulfonamide]
≥ 75%		0.1 to 1 µM		> 1 µM	COc1cc2ncnc(N3CCc4c(cccc4S(N)(=O)=O)C3)c2cc1OC [Ex 6, 2-(6,7-dimethoxyquinazolin-4-yl)-1,2,3,4-tetrahydroisoquinoline-5-sulfonamide]
		0.1 to 1 µM	≥ 75%	> 1 µM	COc1cc2ncnc(NCCc3cccc(NS(N)(=O)=O)c3)c2cc1OC [Ex 7, N-(3-(2-((6,7-dimethoxyquinazolin-4-yl)amino)ethyl)phenyl)sulfonic amide]
